One test concerns the target PHD1 (EGLN2) (Homo sapiens (Human), UniProt Q96KS0). The test can be described thus: HIF-PH assay (14CO2 capture), PHD1 enzyme inhibition. The test is classed as biochemical. Conditions: for PHD2/PHD1 avg.: average of the ratios of multiple independent measurements. The text has this:
(§1) Ketoglutaric acid α-[1-^14C]-sodium salt, alpha-ketoglutaric acid sodium salt, and HPLC purified peptide may be obtained from commercial sources, e.g., Perkin-Elmer (Wellesley Mass.), Sigma-Aldrich, and SynPep Corp. (Dublin Calif.), respectively. Peptides for use in the assay may be fragments of HIFα as described above or as disclosed in International Publication WO 2005/118836, incorporated by reference herein. HIF-pH, e.g., PHD1 (EGLN2) or PHD2 (EGLN1), can be expressed in, e.g., insect Hi5 cells, and partially purified, e.g., through a SP ion exchange chromatography column. Enzyme activity is determined by capturing ^14CO2 using an assay described by Kivirikko and Myllyla (1982, Methods Enzymol. 82:245-304). Assay reactions contain 50 mM HEPES (pH 7.4), 100 μM α-ketoglutaric acid sodium salt, 0.30 mCi/mL ketoglutaric acid α-[1-^14C]-sodium salt, 40 μM FeSO4, 1 mM ascorbate, 1541.8 units/mL Catalase, with or without 50 μM peptide substrate and various concentrations of compound of the invention. Reactions are initiated by addition of HIF-PH enzyme.
(§2) The peptide-dependent percent turnover is calculated by subtracting percent turnover in the absence of peptide from percent turnover in the presence of substrate peptide. Percent inhibition and IC50 are calculated using peptide-dependent percent turnover at given inhibitor concentrations. Calculation of IC50 values for each inhibitor is conducted using GraFit software (Erithacus Software Ltd., Surrey UK).
(§3) The PHD2/PHD1 is the ratio of the IC50 of the compound for each enzyme.

Another test has as its target PHD2 (EGLN1) (Homo sapiens (Human), UniProt Q9GZT9). In words: HIF-PH assay (14CO2 capture), PHD2 enzyme inhibition. The test is classed as biochemical. Conditions: Table 1.
From the text: as §1, §2, §3

Where [1] appears, read: Table 1, individual measurement, read-out: IC50 (μM) PHD1.
[2] abbreviates: Table 1, ratio of the IC50 of the compound for each enzyme.
The mark [3] stands for this setting: individual measurement, read-out: IC50 (μM) PHD2.
Where [4] appears, read: Table 1, average of multiple independent measurements, read-out: IC50 (μM) PHD1 avg.
The mark [5] stands for this setting: average of multiple independent measurements, read-out: IC50 (μM) PHD2 avg.

Several values for one entry are separate records, joined by “and”; a condition that tells them apart may be missing. Identical values can stand only once. Like-named read-outs stand apart in the source and are kept apart here.

Data on 23 compounds can be found in US9409892B2, “4-hydroxy-isoquinoline compounds as HIF hydroxylase inhibitors” (FIBROGEN, INC., priority 2012, dated 2016).

For orientation: IC50 means the midpoint of a concentration-inhibition curve.

PHD1 (EGLN2), sequence (Q96KS0 whole entry, the tested form may be a part): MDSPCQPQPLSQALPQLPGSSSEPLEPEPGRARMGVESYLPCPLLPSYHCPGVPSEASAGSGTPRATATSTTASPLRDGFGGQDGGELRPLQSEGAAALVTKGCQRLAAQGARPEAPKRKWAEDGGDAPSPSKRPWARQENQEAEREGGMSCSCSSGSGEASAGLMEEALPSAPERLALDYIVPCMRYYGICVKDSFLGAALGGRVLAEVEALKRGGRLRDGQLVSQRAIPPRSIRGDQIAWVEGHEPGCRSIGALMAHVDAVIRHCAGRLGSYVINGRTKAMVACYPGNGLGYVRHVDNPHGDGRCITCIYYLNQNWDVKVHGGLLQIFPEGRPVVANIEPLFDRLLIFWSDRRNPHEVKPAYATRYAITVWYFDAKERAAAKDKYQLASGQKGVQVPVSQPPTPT
PHD2 (EGLN1), sequence (Q9GZT9 whole entry): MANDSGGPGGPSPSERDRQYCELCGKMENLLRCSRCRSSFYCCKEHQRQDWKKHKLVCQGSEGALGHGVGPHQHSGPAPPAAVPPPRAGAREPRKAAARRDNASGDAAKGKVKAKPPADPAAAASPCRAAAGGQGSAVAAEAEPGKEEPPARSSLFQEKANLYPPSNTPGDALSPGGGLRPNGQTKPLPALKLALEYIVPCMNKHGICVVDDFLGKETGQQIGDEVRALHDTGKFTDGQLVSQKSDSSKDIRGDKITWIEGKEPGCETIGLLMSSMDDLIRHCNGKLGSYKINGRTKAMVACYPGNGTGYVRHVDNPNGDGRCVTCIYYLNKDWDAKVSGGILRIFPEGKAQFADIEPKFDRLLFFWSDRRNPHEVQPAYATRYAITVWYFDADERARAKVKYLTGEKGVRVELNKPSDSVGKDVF

For the compound `Cc1ccc(Oc2ccc3c(O)c(C(=O)NCC(C)(C)C(=O)O)nc(C#N)c3c2)cc1` [Compound 44, 3-[(1-Cyano-4-hydroxy-7-p-tolyloxy-isoquinoline-3-carbonyl)-amino]-2,2-dimethyl-propionic acid], the IC50 on PHD1 (EGLN2) (setting [1]) is 0.28 µM; on PHD2 (EGLN1) (setting [3]), 3.9 µM. Also, the PHD2/PHD1 on PHD1 (EGLN2) (setting [2]) is 14.
On to `N#Cc1nc(C(=O)NCC[C@H](N)C(=O)O)c(O)c2ccc(Oc3ccccc3)cc12` [Compound 45, (S)-2-Amino-4-(1-cyano-4-hydroxy-7-phenoxyisoquinoline-3-carboxamido)butanoic acid], for which the IC50 at PHD1 (EGLN2) (setting [1]) stood at 1.41 µM; at PHD2 (EGLN1) (setting [3]), 36.7 µM. Besides, the PHD2/PHD1 on PHD1 (EGLN2) (setting [2]) is reported as 26.
As to `CC(C)(CCC(=O)O)NC(=O)c1nc(C#N)c2cc(Oc3ccccc3)ccc2c1O` [Compound 46, 4-(1-Cyano-4-hydroxy-7-phenoxyisoquinoline-3-carboxamido)-4-methylpentanoic acid], the IC50 at PHD1 (EGLN2) (setting [1]) came out at 0.94 µM; at PHD2 (EGLN1) (setting [3]), 20.8 µM. The PHD2/PHD1 on PHD1 (EGLN2) (setting [2]) worked out at 22.
For `N#Cc1nc(C(=O)N[C@@H](CC(=O)O)c2ccccc2)c(O)c2ccc(Oc3ccccc3)cc12` [Compound 47, (S)-3-[(1-Cyano-4-hydroxy-7-phenoxy-isoquinoline-3-carbonyl)-amino]-3-phenyl-propionic acid] the same measures were 1.28 µM, 30.2 µM and 24.
With `N#Cc1nc(C(=O)N[C@H](CC(=O)O)c2ccccc2)c(O)c2ccc(Oc3ccccc3)cc12` [Compound 48, (R)-3-[(1-Cyano-4-hydroxy-7-phenoxy-isoquinoline-3-carbonyl)-amino]-3-phenyl-propionic acid], the figures for the IC50 at PHD1 (EGLN2) (setting [1]) and at PHD2 (EGLN1) (setting [3]) were 5.42 µM and 50.1 µM, respectively. For the same compound, the PHD2/PHD1 at PHD1 (EGLN2) (setting [2]) amounted to 9.
With `N#Cc1nc(C(=O)NC[C@H](Cc2ccccc2)C(=O)O)c(O)c2ccc(Oc3ccccc3)cc12` [Compound 49, (S)-2-Benzyl-3-[(1-cyano-4-hydroxy-7-phenoxy-isoquinoline-3-carbonyl)-amino]-propionic acid], the IC50 at PHD1 (EGLN2) (setting [1]) was 1.66 µM; on PHD2 (EGLN1) (setting [3]) it was 23.9 µM. In addition, the PHD2/PHD1 at PHD1 (EGLN2) (setting [2]) was found to be 14.
For `N#Cc1nc(C(=O)NCC[C@@H](N)C(=O)O)c(O)c2ccc(Oc3ccccc3)cc12` [Compound 50, (R)-2-Amino-4-(1-cyano-4-hydroxy-7-phenoxyisoquinoline-3-carboxamido)butanoic acid], the IC50 on PHD1 (EGLN2) (setting [1]) turned out to be 5.19 µM; at PHD2 (EGLN1) (setting [3]), 45.4 µM. The PHD2/PHD1 at PHD1 (EGLN2) (setting [2]) is reported as 9.
For `CC(=O)N[C@H](CCNC(=O)c1nc(C#N)c2cc(Oc3ccccc3)ccc2c1O)C(=O)O` [Compound 51, (R)-2-Acetylamino-4-[(1-cyano-4-hydroxy-7-phenoxy-isoquinoline-3-carbonyl)-amino]-butyric acid] the same measures were 0.28 µM, 2.1 µM and 7.5.
Turning to `CCNC(=O)N[C@H](CCNC(=O)c1nc(C#N)c2cc(Oc3ccccc3)ccc2c1O)C(=O)O` [Compound 52, (R)-4-(1-Cyano-4-hydroxy-7-phenoxyisoquinoline-3-carboxamido)-2-(3-ethylureido)butanoic acid], the IC50 on PHD1 (EGLN2) (setting [1]) stood at 1.33 µM; on PHD2 (EGLN1) (setting [3]) it was 24.7 µM. Moreover, the PHD2/PHD1 on PHD1 (EGLN2) (setting [2]) stood at 18.6.
For the compound `COC(=O)N[C@H](CCNC(=O)c1nc(C#N)c2cc(Oc3ccccc3)ccc2c1O)C(=O)O` [Compound 53, (R)-4-(1-Cyano-4-hydroxy-7-phenoxyisoquinoline-3-carboxamido)-2-(methoxycarbonylamino)butanoic acid], the IC50 is 0.24 µM at PHD1 (EGLN2) (setting [1]) and 1.4 µM on PHD2 (EGLN1) (setting [3]). The PHD2/PHD1 at PHD1 (EGLN2) (setting [2]) stood at 5.8.
Turning to `CN(C)C(=O)N[C@H](CCNC(=O)c1nc(C#N)c2cc(Oc3ccccc3)ccc2c1O)C(=O)O` [Compound 54, (R)-4-(1-Cyano-4-hydroxy-7-phenoxyisoquinoline-3-carboxamido)-2-(3,3-dimethylureido)butanoic acid], the 50% inhibitory concentration (IC50) on PHD1 (EGLN2) (setting [1]) was 1.81 µM; at PHD2 (EGLN1) (setting [3]), 11 µM. For the same compound, the PHD2/PHD1 on PHD1 (EGLN2) (setting [2]) stood at 6.1.
Turning to `N#Cc1nc(C(=O)NCC[C@@H](NC(N)=O)C(=O)O)c(O)c2ccc(Oc3ccccc3)cc12` [Compound 55, (R)-4-(1-Cyano-4-hydroxy-7-phenoxyisoquinoline-3-carboxamido)-2-ureidobutanoic acid], the IC50 on PHD1 (EGLN2) (setting [1]) came out at 1.1 µM; at PHD2 (EGLN1) (setting [3]), 9.1 µM. Moreover, the PHD2/PHD1 on PHD1 (EGLN2) (setting [2]) stood at 8.
As for `N#Cc1nc(C(=O)NCCC(=O)C(=O)O)c(O)c2ccc(Oc3ccccc3)cc12` [Compound 56, 4-(1-Cyano-4-hydroxy-7-phenoxyisoquinoline-3-carboxamido)-2-oxobutanoic acid], the IC50 was 0.26 µM on PHD1 (EGLN2) (setting [1]) and 1.8 µM at PHD2 (EGLN1) (setting [3]). In addition, at PHD1 (EGLN2) (setting [2]), the PHD2/PHD1 was 7.
For `CCC(CNC(=O)c1nc(C#N)c2cc(Oc3ccccc3)ccc2c1O)C(=O)O` (stereo not shown) [Compound 57, 2-((1-Cyano-4-hydroxy-7-phenoxyisoquinoline-3-carboxamido)methyl)butanoic acid] the same measures were 0.54 µM, 5.1 µM and 9.
Regarding `CCC(C)(CNC(=O)c1nc(C#N)c2cc(Oc3ccccc3)ccc2c1O)C(=O)O` (stereo not shown) [Compound 58, 2-{[(1-Cyano-4-hydroxy-7-phenoxy-isoquinoline-3-carbonyl)-amino]-methyl}-2-methyl-butyric acid], the values for the IC50 on PHD1 (EGLN2) (setting [1]) and at PHD2 (EGLN1) (setting [3]) were 1.1 µM and 12.3 µM, respectively. Moreover, the PHD2/PHD1 on PHD1 (EGLN2) (setting [2]) stood at 11.
With `CC(C)(CNC(=O)c1nc(C#N)c2cc(Oc3ccc4ccccc4c3)ccc2c1O)C(=O)O` [Compound 59, 3{-[1-Cyano-4-hydroxy-7-(naphthalen-2-yloxy)-isoquinoline-3-carbonyl]-amino}-2,2-dimethyl-propionic acid], the results for the IC50 on PHD1 (EGLN2) (setting [1]) and at PHD2 (EGLN1) (setting [3]) were 0.13 µM and 0.86 µM, respectively. Also, at PHD1 (EGLN2) (setting [2]), the PHD2/PHD1 turned out to be 6.5.
Take `COc1ccccc1Oc1ccc2c(O)c(C(=O)NCC(C)(C)C(=O)O)nc(C#N)c2c1` [Compound 60, 3{-[1-Cyano-4-hydroxy-7-(2-methoxy-phenoxy)-isoquinoline-3-carbonyl]-amino}-2,2-dimethyl-propionic acid]: the IC50 at PHD1 (EGLN2) (setting [4]) is 1.04 µM; at PHD1 (EGLN2) (setting [1]), 1 µM and 1.08 µM; at PHD2 (EGLN1) (setting [5]) it was 7.23 µM; on PHD2 (EGLN1) (setting [3]), 3.65 µM and 10.8 µM. The PHD2/PHD1 avg. at PHD1 (EGLN2) (Table 1) was found to be 6.8 avg.
Turning to `CC(C)C(CC(=O)O)NC(=O)c1nc(C#N)c2cc(Oc3ccccc3)ccc2c1O` (stereo not shown) [Compound 61, 3-[(1-Cyano-4-hydroxy-7-phenoxy-isoquinoline-3-carbonyl)-amino]-4-methyl-pentanoic acid], the PHD2/PHD1 on PHD1 (EGLN2) stood at 6. For the same compound, the IC50 at PHD1 (EGLN2) (read-out: IC50 (μM) PHD1) was 33.3 µM; on PHD2 (EGLN1) (setting [3]) it was more than 200 µM.
As to `CCc1ccccc1Oc1ccc2c(O)c(C(=O)NCC(C)(C)C(=O)O)nc(C#N)c2c1` [Compound 62, 3{-[1-Cyano-7-(2-ethyl-phenoxy)-4-hydroxy-isoquinoline-3-carbonyl]-amino}-2,2-dimethyl-propionic acid], the IC50 on PHD1 (EGLN2) (setting [1]) worked out at 0.48 µM; at PHD2 (EGLN1) (setting [3]), 3.06 µM. The PHD2/PHD1 on PHD1 (EGLN2) (setting [2]) is on record as 6.
Turning to `CC[C@H](CC(=O)O)NC(=O)c1nc(C#N)c2cc(Oc3ccccc3)ccc2c1O` [Compound 63, 3-(R)-[(1-Cyano-4-hydroxy-7-phenoxy-isoquinoline-3-carbonyl)-amino]-pentanoic acid], the IC50 at PHD1 (EGLN2) (setting [1]) is 2.82 µM; at PHD2 (EGLN1) (setting [3]) it was 26.9 µM. The PHD2/PHD1 at PHD1 (EGLN2) (setting [2]) stood at 10.
With `C[C@H](CC(=O)O)NC(=O)c1nc(C#N)c2cc(Oc3ccccc3)ccc2c1O` [Compound 64, 3-(R)-[(1-Cyano-4-hydroxy-7-phenoxy-isoquinoline-3-carbonyl)-amino]-butyric acid], the IC50 on PHD1 (EGLN2) (setting [1]) is 0.93 µM; on PHD2 (EGLN1) (setting [3]), 12.6 µM. The PHD2/PHD1 on PHD1 (EGLN2) (setting [2]) worked out at 14.
On to `N#Cc1nc(C(=O)NCC(F)(F)C(=O)O)c(O)c2ccc(Oc3ccccc3)cc12` [Compound 65, 3-[(1-Cyano-4-hydroxy-7-phenoxy-isoquinoline-3-carbonyl)-amino]-2,2-difluoro-propionic acid], for which the IC50 at PHD1 (EGLN2) (setting [1]) was 0.73 µM; at PHD2 (EGLN1) (setting [3]) it was 5.99 µM. Further, the PHD2/PHD1 at PHD1 (EGLN2) (setting [2]) came out at 8.
For the compound `CC(C)CC(CC(=O)O)NC(=O)c1nc(C#N)c2cc(Oc3ccccc3)ccc2c1O` (stereo not shown) [Compound 66, 3-[(1-Cyano-4-hydroxy-7-phenoxy-isoquinoline-3-carbonyl)-amino]-5-methyl-hexanoic acid], the IC50 on PHD1 (EGLN2) (setting [4]) was 5.52 µM; at PHD1 (EGLN2) (setting [1]), 6.23 µM and 4.8 µM; at PHD2 (EGLN1) (setting [5]) it was 53.5 µM; at PHD2 (EGLN1) (setting [3]), 26.5 µM and 80.5 µM. On PHD1 (EGLN2) (Table 1), the PHD2/PHD1 avg. was determined as 10.5 avg.
